We go through two compounds from ChEMBL document CHEMBL1145992, “N6-substituted D-4'-thioadenosine-5'-methyluronamides: potent and selective agonists at the human A3 adenosine receptor” (J Med Chem, 2003).

Where only a bound is given, the exact number is not on record here.

The target of one experiment is T1, Adenosine receptor A3 (Homo sapiens, UniProt P0DMS8).
T1 sequence (P0DMS8 whole entry): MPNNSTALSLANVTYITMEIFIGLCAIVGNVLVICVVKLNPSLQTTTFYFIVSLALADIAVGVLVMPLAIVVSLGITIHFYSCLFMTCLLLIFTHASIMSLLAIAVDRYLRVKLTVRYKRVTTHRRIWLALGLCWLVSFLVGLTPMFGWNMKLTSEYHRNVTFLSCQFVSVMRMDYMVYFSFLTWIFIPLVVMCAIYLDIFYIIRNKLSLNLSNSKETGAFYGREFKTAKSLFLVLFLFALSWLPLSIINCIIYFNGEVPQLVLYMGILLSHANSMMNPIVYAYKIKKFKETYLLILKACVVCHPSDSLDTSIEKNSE
Kind of experiment: Inhibitory concentration against human Adenosine A3 receptor mediated inhibition of cyclic AMP in transfected CHO cells. Format: functional, cell-based.

For experiment [1], the target named is Adenosine receptor A2a (Rattus norvegicus) (UniProt P30543). Kind of experiment: Percent displacement of [3H]-CGS-21,680 from rat adenosine A2A receptor in rat brain homogenates at 1 uM. (Displacement assays read how much labelled ligand stays bound in the presence of the test substance.)
Chain of Adenosine receptor A2a (Rattus norvegicus) (P30543 whole entry): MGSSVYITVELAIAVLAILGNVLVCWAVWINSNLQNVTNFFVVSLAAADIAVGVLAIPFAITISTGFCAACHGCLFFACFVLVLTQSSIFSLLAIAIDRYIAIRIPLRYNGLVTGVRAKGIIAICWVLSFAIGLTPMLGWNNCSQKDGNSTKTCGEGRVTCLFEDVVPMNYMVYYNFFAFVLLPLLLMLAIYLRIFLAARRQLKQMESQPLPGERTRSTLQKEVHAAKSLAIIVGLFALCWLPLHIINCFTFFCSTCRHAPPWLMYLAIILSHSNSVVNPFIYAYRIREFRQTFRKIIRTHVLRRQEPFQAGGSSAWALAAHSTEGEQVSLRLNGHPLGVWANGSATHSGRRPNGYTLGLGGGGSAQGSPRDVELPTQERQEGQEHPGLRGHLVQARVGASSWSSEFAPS
The target of experiment [2] is Adenosine receptor A2a (Homo sapiens, UniProt P29274). In words: Binding affinity for human adenosine A2A receptor in CHO cells using [3H]CGS-21680. The class given is cell-based.
Chain of Adenosine receptor A2a (Homo sapiens, UniProt P29274) (P29274 whole entry): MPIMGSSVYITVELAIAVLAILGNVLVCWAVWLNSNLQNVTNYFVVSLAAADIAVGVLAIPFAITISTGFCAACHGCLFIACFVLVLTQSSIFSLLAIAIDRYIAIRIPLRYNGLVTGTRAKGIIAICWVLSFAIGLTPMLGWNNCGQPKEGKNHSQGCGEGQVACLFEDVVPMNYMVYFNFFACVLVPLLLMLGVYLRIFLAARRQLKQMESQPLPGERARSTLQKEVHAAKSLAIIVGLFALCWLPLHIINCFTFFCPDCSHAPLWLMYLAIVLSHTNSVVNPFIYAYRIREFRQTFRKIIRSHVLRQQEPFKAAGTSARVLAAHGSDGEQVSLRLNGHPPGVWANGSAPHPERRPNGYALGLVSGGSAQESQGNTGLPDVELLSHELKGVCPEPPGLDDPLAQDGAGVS
The target of experiment [3] is Adenosine receptor A2a (Rattus norvegicus, UniProt P30543). In words: Binding affinity for rat adenosine A2A receptor in rat brain homogenates using [3H]CGS-21680.
Chain of Adenosine receptor A2a (Rattus norvegicus, UniProt P30543) (P30543 whole entry): as the sequence (P30543 whole entry) above
The target of another experiment is T2, Adenosine receptor A1 (Rattus norvegicus, UniProt P25099).
T2 sequence (P25099 whole entry): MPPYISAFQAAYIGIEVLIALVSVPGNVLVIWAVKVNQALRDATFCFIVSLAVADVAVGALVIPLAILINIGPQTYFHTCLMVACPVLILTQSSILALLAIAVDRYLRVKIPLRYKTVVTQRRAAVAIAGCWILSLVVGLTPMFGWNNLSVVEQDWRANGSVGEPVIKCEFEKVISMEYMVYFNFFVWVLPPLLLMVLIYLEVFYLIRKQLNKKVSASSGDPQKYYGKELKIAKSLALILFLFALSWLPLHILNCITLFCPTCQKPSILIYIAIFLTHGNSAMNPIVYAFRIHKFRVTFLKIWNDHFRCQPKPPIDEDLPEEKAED
In words: Binding affinity for rat Adenosine A1 receptor in rat brain homogenates using [3H]N6-(R)-phenylisopropyladenosine.

At Adenosine receptor A3, `CNC(=O)[C@H]1S[C@@H](n2cnc3c(N)nc(Cl)nc32)[C@H](O)[C@@H]1O` had a half-inhibitory concentration (IC50) of 0.001 µM. The compound further displayed a Displacement in experiment [1] below 10%.

`CNC(=O)[C@H]1S[C@@H](n2cnc3c(NCc4cccc(I)c4)nc(Cl)nc32)[C@H](O)[C@@H]1O`: the Ki is 0.223 µM at Adenosine receptor A2a [2], 0.348 µM at Adenosine receptor A2a [3] and 0.14 µM at Adenosine receptor A1.

The IC50 is the concentration that gives 50% inhibition. Usually Ki stands for a measure of affinity in units of concentration, obtained from inhibition or displacement. Low readings indicate a stronger hold on the target, high ones a looser hold on the target.
